Assay results as given in article PMC11651915, “Small molecule protein assembly modulators with pan-cancer therapeutic efficacy” (Open Biology, 2024).
Where a name gives a salt, the structure may show the parent alone.

Tests used:
[1] = test system: A549 human lung cancer xenograft; experiment: A549 xenograft studies; conditions: for tumour growth inhibition (TGI): A549 xenograft, Gemcitabine 100 mg kg^−1 twice weekly
LNCaP C-33 cells = experiment: Cell growth recovery assay; assay type: cell-based, human; conditions: PAV-617 0.3 µM 24 h, PAV-951 0.4 µM 6 h, followed
NCI-60 cancer cell lines = conditions: for anti-cancer activity in NCI-60 single-dose testing: single dose 2.5 µM
Hennes 20 cells [2] = experiment: Cell growth recovery assay; assay type: cell-based, Chinese hamster; conditions: PAV-617 0.3 µM 24 h, PAV-951 0.4 µM 6 h, followed to day 14
Protocol: To confirm that the inhibition observed in low-density Hennes 20 cells resulted from temporary arrest of proliferation and not cell death, compound was removed after a period of treatment and cell growth was measured over the subsequent two weeks for recovery potential. Once compound was removed, following a period of recovery, cell proliferation was restored over time for both chemotypes (see figure 1f,g). By day 11, cell density in compound-treated cells had caught up to that in the DMSO-treated cells (see figure 1f,g).
A 96-well plate was seeded with either Hennes 20 or LNCaP C-33 cells at 500 cells per well in 90 µl of minimum essential media and incubated at 37°C for 24 h. 0.5% DMSO was diluted in media and added to six control wells for each plate. PAV-617 was diluted in media and added to three wells at a concentration of 0.3 µM. PAV-951 was diluted in media and added to concentration of 0.4 µM. After 24 h of PAV-617 treatment or 6 h of PAV-951 treatment, the medium containing compound was removed and replaced with fresh media. After 72 h (day 5), plates were assayed with AlamarBlue and fluorescence was read at 530/590. The medium containing AlamarBlue was removed and replaced with fresh media. After another 72 h (day 8) plates were assayed with AlamarBlue and fluorescence again, then medium containing AlamarBlue was removed and replaced with fresh media. […]

Hennes 20 cells [3] = experiment: High density/low density 'arrest of proliferation' assay; assay type: cell-based, Chinese hamster; conditions: Hennes 20, 72 h, AlamarBlue
Mpox Zaire 79 = assay type: cell-based, Mpox virus; conditions: read-out: EC50 against Mpox
[4] = test system: BB1 patient biopsy derived cell line (benign adenoma); experiment: BB1 and BB5 adenoma versus carcinoma screen (confocal imaging); assay type: cell-based, human; conditions: 60 h, percent ChromaLive negative
A549 = experiment: In-house cancer cell viability screen (AlamarBlue); assay type: cell-based, human; conditions: for change of potency when compound is added at the time of plating rather than 24 h later: A549; for IC50: Homo sapiens, AlamarBlue
[5] = test system: HT-29 colorectal cancer xenograft; experiment: HT-29 xenograft study; assay type: in vivo, mouse; conditions: 17 days, PAV-951 3 mg kg^−1 IV, Irinotecan 60 mg kg^−1 IP
Protocol: In the second animal efficacy study, human HT-29 colorectal adenocarcinoma cells were grafted subcutaneously onto mice. After tumour establishment, the animals received treatment with vehicle, 3 mg kg^−1 PAV-951 or 60 mg kg^−1 of a positive control drug Irinotecan. […]. Survival was not assessed as part of the study.
HT-29 cells growing in HBSS medium were suspended in Matrigel. 0.1 ml of the cell suspension containing 5 × 10^6 cells were injected subcutaneously into the left flank region of male, 6–8 week old SCID mice. After tumour establishment, animals were divided randomly into groups of six and treated daily by IV with vehicle daily for 17 days, 3 mg kg^−1 PAV-951 three times per week for 17 days, or treated by IP with 60 mg kg^−1 Irinotecan every 4 days for 14 days. Tumour volume was calculated using the formula: (L × W2)/2 where L is the largest diameter and W is the smallest diameter of the tumour. Statistical analysis was performed using GraphPad Prism (Ver. 5.03). Statistical analysis of tumour growth inhibition between the Control and Treated groups was performed by using ne-way ANOVA followed by Dunnett’s test.

in vivo = conditions: female, Balb/c, mouse, ip
[6] = Mouse pharmacokinetics (plasma and lung); assay type: in vivo; conditions: PAV-621 5 mg kg^−1 IP versus PAV-951 2.5 mg kg^−1 IV
Protocol: Pharmacokinetic (PK) studies were conducted in male Sprague Dawley Rats aged 8–10 weeks or male CD1 mice aged 5–6 weeks or Balb/c nude mice. Treatment groups were made up of four animals each and dosing regimens for disclosed data is provided. Animals were sacrificed at the end of the study period using an overdose of CO2. PK studies were conducted at Vipragen Biosciences Private Limited or Pharmaron in accordance with the CPCSEA guidelines and ARRIVE guidelines.
CD1 or Balb/c nude mice aged 6–8 weeks were randomly divided into treatment groups with three animals per group. Animals in each treatment group were weighed and received either one […] intravenous dose of either vehicle (10% DMSO, 45% propylene glycol, 45% sterile water) or 2.5 mg kg^−1 PAV-951, or one intraperitoneal dose of either vehicle ([…] 10% DMSO, 45% propylene glycol, 45% sterile water) or 5 mg kg^−1 PAV-621. Animals were sacrificed after 1 h, 4 h, 8 h, 24 h post-dosing. Concentration of drug in the plasma and lung over time was measured using a Waters Acquity TQD LCMS/MS. Maximum concentration (Cmax) was determined to be the maximum concentration detected in a dataset. Half life, area under the curve and mean residence time were calculated with Phoenix WinNolin software.

A549 and MRC-5 cells = experiment: Toxicity to A549 cancer line versus non-cancer MRC-5 cells; assay type: cell-based
[7] = mouse MTD; cited from earlier work
[8] = PAV-617 study, 28 days, IP, PAV-617 10 mg kg^−1 once daily

3,7-Di(pyrrolidin-1-yl) phenothiazinium iodide [PAV-617]
tumour growth inhibition (TGI) [1, 8]: 63% | adverse effects at the doses of the xenograft studies ([1]; clinical signs, weight loss, histopathological changes, blood cell count): without any serious adverse effects | recovery of cell growth after removal of compound (LNCaP C-33 cells): did not recover | dose inhibiting growth relative to vehicle-treated cells (GI50) (NCI-60 cancer cell lines; for more than 40 cell lines): 2–3 digit nanomolar range | CC50 (NCI-60 cancer cell lines; read-out: dose required to decrease cell viability below that at the time compound was added (LC50), for at least 40 cell lines): > 100 µM | recovery of cell growth after removal of compound (Hennes 20 cells [2]): recovered over time | inhibitory effect at low (500 cells per well) versus high (15 000 cells per well) density (Hennes 20 cells [3]): difference between their inhibitory effects on low and high density-plated Hennes 20 cells | EC50 (Mpox Zaire 79): 0.201 µM | IC50 [4]: 0.81 µM

Nc1ccn([C@@H]2O[C@H](CO)[C@@H](O)C2(F)F)c(=O)n1 [Gemcitabine, Gemcitabine hydrochloride, reference compound]
tumour growth inhibition (TGI) [1, 8]: 64% | tumour growth inhibition (TGI) ([1]; PAV-951 study, 14 days, IV, PAV-951 1.5 mg kg^−1 once daily): 84% | change of potency when compound is added at the time of plating rather than 24 h later (A549): did not significantly affect | IC50 (A549; A549 (treatment 0 h after plating)): 3.01 µM | IC50 (A549; A549 (treatment 24 h after plating), 72 h): 3.92 µM

CCc1c2c(nc3ccc(OC(=O)N4CCC(N5CCCCC5)CC4)cc13)-c1cc3c(c(=O)n1C2)COC(=O)[C@]3(O)CC [Irinotecan, reference compound]
tumour growth inhibition (TGI) [5]: 108%

c1ccc(CCNc2ncnc3cc(N4CCN(c5ccc6c(NCCc7ccccc7)ncnc6c5)CC4)ccc23)cc1 [PAV-436]
anti-cancer activity in NCI-60 single-dose testing (NCI-60 cancer cell lines): lost all anti-cancer activity on all cell lines examined

CCCCNc1ncnc2cc(N3CCN(c4ccc5c(NCCCC)ncnc5c4)CC3)ccc12 [PAV-621]
anti-cancer activity in NCI-60 single-dose testing (NCI-60 cancer cell lines): improvements relative to PAV-951 | MTD at 72 h (in vivo): 7.5 mg/kg | exposure in the lung [6]: comparable exposure with PAV-951 | change of potency when compound is added at the time of plating rather than 24 h later (A549): increased potency | toxicity to A549 cancer line compared with non-cancer MRC-5 cells (A549 and MRC-5 cells): selectively toxic to the A549 cancer line

CCC1=C[C@@H]2CN(C1)Cc1c([nH]c3ccccc13)[C@@](C(=O)OC)(c1cc3c(cc1OC)N(C)[C@H]1[C@@](O)(C(=O)OC)[C@H](OC(C)=O)[C@]4(CC)C=CCN5CC[C@]31[C@@H]54)C2 [Vinorelbine]
MTD [7]: 10 mg/kg

cisplatin
MTD [7]: 6 mg/kg
